{"source": "patent US10702506B2", "about": "“Small molecule inhibitors of pendrin ion exchange and pharmaceutical compositions” (THE REGENTS OF THE UNIVERSITY OF CALIFORNIA, priority 2016, dated 2020)", "test": "Pharmacokinetics in mice, LC/MS of plasma and urine", "type": "in vivo", "details": "10 mg/kg bolus ip", "procedure": "Pharmacokinetics measurements were done to guide studies of diuretic efficacy. Animal experiments were approved by UCSF Institutional Animal Care and Use Committee. Female CD1 mice (8-10 weeks) were injected with 10 mg/kg PDSinh-C01 (in saline containing 5% DMSO and 10% Kolliphor HS) ip and blood was collected by orbital puncture at 15, 30, 60, 150 and 240 min, and centrifuged at 5000 rpm for 15 min to separate plasma. Urine was collected in metabolic cages. An LC/MS method was developed to measure PDSinh-C01 concentrations in mouse blood and urine. Plasma and urine samples (60 μL) were mixed with 300-μL acetonitrile and centrifuged at 13000 rpm for 20 min, and 90 μL of the supernatant was taken for liquid chromatography/mass spectrometry (LC/MS; Waters 2695 and Micromass ZQ). […] Sodium and potassium concentrations in 3-h collected urine samples were measured by flame photometry (PFP7 Clinical Flame Photometer, Bibby Scientific Ltd, Stone. Staffs, UK). […] Blood gas was analyzed by iSTAT1 with CG4+ cartridges (Abbott Laboratories, Abbott Park, IL, USA). Urine pH was measured on freshly collected urine samples using an AB 15 pH Meter (Fisher Scientific, Pittsburgh, Pa., USA). Experiments with two groups were analyzed with Student's t-test, and experiments with 3 or more groups were analyzed using one-way analysis of variance and post-hoc Newman-Keuls multiple comparisons test. […]", "data": [{"smiles": "Cc1n[nH]c(-c2cc(S(=O)(=O)NC3CCCc4ccccc43)c(C)s2)c1C", "note": "(centres unmarked) [PDSinh-C01]", "values": [{"measurement": "concentration in plasma", "value": "predicted therapeutic concentrations for several hours"}, {"measurement": "concentration in urine", "value": "predicted therapeutic concentrations for several hours"}]}]}
